# Measured values taken from patent US11052026B2, “Multi-capsule containing pigment for cosmetic material or functional component, and method for producing same” (CHEMLAND. CO., LTD., priority 2017, dated 2021).
# Experiment: Residual rate of functional component during storage at 35° C. for 16 weeks (Example 1)
# Assay type: physicochemical
# Conditions: stored at 35° C.
# Procedure: The residual rates of the functional components were compared while the cosmetic functional multi-capsule in Preparation Example 3 was stored at 35° C.
Compound,Functional Component Residual Rate (storage period 2 weeks),Functional Component Residual Rate (storage period 4 weeks),Functional Component Residual Rate (storage period 6 weeks),Functional Component Residual Rate (storage period 8 weeks),Functional Component Residual Rate (storage period 10 weeks),Functional Component Residual Rate (storage period 12 weeks),Functional Component Residual Rate (storage period 14 weeks),Functional Component Residual Rate (storage period 16 weeks),Ascorbic Acid Residual Rate (storage period 2 weeks),Ascorbic Acid Residual Rate (storage period 4 weeks),Ascorbic Acid Residual Rate (storage period 6 weeks),Ascorbic Acid Residual Rate (storage period 8 weeks),Ascorbic Acid Residual Rate (storage period 10 weeks),Ascorbic Acid Residual Rate (storage period 12 weeks),Ascorbic Acid Residual Rate (storage period 14 weeks),Ascorbic Acid Residual Rate (storage period 16 weeks)
anthocyanin [compound 2],97.2%,94.5%,91.8%,88.8%,86.5%,78.5%,74.5%,69.5%,–,–,–,–,–,–,–,–
"O=C1O[C@H]([C@@H](O)CO)C(O)=C1O [compound 1, ascorbic acid]",–,–,–,–,–,–,–,–,97.2%,95.3%,92.9%,90%,88.4%,81.2%,76.3%,70.5%
